Patent US20190374574A1, “COMPOSITION FOR THE TREATMENT OF GASTROINTESTINAL DISORDERS” (NEILOS S.R.L., priority 2017, published 2019)
Read-outs that look alike come from different tables or passages of the source.

Legend:
[1] = test system: patients with lactose intolerance; details: cited from earlier work; for reduction in the hydrogen concentration compared to the placebo: p<0.001; for hydrogen concentration in expired air: placebo 51.46±16.12
[2] = test system: Male mice of the ICR strain; test: Diarrhoea induced by castor oil in mice; type: in vivo; details: oral; for effect on diarrhoea induced by castor oil (percentage of mice that exhibited diarrhoea at the second hour): 30 minutes before castor oil 0.2 ml/mouse, evaluated 2 hours after castor oil, vs control
Method: In the following tests, the effect of two formulations and their individual constituents was evaluated in order to determine a possible synergistic effect among the individual components on diarrhoea induced by castor oil.
Male mice of the ICR strain supplied by the company Charles River and weighing 20-25 g were used. The animals were housed in temperature-controlled rooms (temperature of 23±2° C., humidity of 50±2%, 12-hour light-dark cycles) and had free access to water and food, consisting of a standard diet supplied by the company Mucedola Mangimi (Settimo Milanese, Italy). All experiments were performed in observance of Legislative Decree no. 116 of 27 Jan. 1992 and according to the guidelines of the Council of the European Union (86/609/EEC and 2010/63/EU).
The technique of Borrelli et al. (Borrelli F, Capasso F, Capasso R, Ascione V, Aviello G, Longo R, Izzo A A (2006). “Effect of Boswellia serrata on intestinal motility in rodents: inhibition of diarrhoea without constipation” Br J Pharmacol 148:553-560) was used. In practical terms, the mice were fasted for a period of 12 hours and then isolated in individual cages provided with a mesh on the bottom, set 5 cm above a sheet of absorbent paper. This enabled inspection of the excreted faeces. 30 minutes after administration of the samples to be tested, the animals received 0.2 ml of castor oil by means of a gastric probe. The diarrhoea was evaluated 15 minutes after the administration of the cathartic agent and every 15 minutes until the second hour. […]
Two formulations (according to the invention) were evaluated, consisting, respectively, of activated charcoal, Carum carvi, papain, α-galactosidase and β-galactosidase (total formulation) and activated charcoal, Carum carvi and papain (partial formulation). […]
The results are expressed as the mean±standard error of the mean (S.E.M.). The difference between two means was evaluated by means of Student's t-test. […]

Molecule	reduction in the hydrogen concentration compared to the placebo ([1]; group A: 3000 U of lactase added to milk 10 hours prior to administration) [%]	hydrogen concentration in expired air ([1]; group A: 3000 U of lactase added to milk 10 hours prior) [p.p.m.]	reduction in the hydrogen concentration compared to the placebo ([1]; group B: 6000 U of lactase added to milk 5 minutes prior to ingestion) [%]	hydrogen concentration in expired air ([1]; group B: 6000 U of lactase added to milk 5 minutes prior) [p.p.m.]	cumulative quantity of expired hydrogen vs group C (placebo) ([1]; groups A and B)	effect on diarrhoea induced by castor oil (percentage of mice that exhibited diarrhoea at the second hour) [2]	dose at which the reduction of castor oil diarrhoea was significant ([2]; 2 hours after castor oil) [mg/kg]
β-galactosidase	77	12.07±7.8	73	13.97±7.99	significantly lower	not capable of modifying the cathartic effect of the castor oil	–
Papain: Papain (CAS N. 9001-73-4), cysteine-protease from Carica papaya, activity greater than or equal to 2.5 FIP UI/mg (protein, UniProt P00784 134-345, looked up) Papain: IPEYVDWRQKGAVTPVKNQGSCGSCWAFSAVVTIEGIIKIRTGNLNEYSEQELLDCDRRSYGCNGGYPWSALQLVAQYGIHYRNTYPYEGVQRYCRSREKGPYAAKTDGVRQVQPYNEGALLYSIANQPVSVVLEAAGKDFQLYRGGIFVGPCGNKVDHAVAAVGYGPNYILIKNSWGTGWGENGYIRIKRGTGNSYGVCGLYTSSFYPVKN	–	–	–	–	–	significantly reduced diarrhoea	30
